What follows are molecules tested against IN-GCN2 interaction (6xHis-IN / GST-GCN2) (UniProt P04585+Q9P2K8) (assay: biochemical). Settings: screen, 100 µM; inactive = within 10% of the DMSO control.
Chain of IN-GCN2 interaction (6xHis-IN / GST-GCN2) (Q9P2K8 192-1024, other chains not shown): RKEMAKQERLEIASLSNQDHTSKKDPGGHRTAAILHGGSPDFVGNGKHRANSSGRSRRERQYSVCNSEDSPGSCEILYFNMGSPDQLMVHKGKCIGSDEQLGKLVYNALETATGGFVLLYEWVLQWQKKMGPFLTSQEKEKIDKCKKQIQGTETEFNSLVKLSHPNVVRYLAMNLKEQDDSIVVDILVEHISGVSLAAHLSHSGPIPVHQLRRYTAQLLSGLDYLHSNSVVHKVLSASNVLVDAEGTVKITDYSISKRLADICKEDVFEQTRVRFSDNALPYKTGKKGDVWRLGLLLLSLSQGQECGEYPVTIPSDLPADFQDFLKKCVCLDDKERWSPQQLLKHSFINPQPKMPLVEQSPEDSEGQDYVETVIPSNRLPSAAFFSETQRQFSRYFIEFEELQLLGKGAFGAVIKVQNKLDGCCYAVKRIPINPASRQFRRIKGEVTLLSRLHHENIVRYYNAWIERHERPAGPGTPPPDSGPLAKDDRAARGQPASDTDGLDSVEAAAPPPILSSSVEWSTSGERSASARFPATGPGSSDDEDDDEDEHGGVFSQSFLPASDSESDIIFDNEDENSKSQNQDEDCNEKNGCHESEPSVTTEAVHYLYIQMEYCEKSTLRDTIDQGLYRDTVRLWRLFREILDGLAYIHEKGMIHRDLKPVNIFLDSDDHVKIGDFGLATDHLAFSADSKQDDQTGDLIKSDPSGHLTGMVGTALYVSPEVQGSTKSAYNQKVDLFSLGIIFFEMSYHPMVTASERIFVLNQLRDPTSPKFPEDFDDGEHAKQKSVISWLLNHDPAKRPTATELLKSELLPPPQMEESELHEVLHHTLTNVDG
Assay type: binding, HIV-1 IN; human GCN2
In the case of `COc1cc2c3c(c1O)-c1ccccc1C[C@@H]3N(C)CC2` [NSC785159], the “effect on IN-GCN2 interaction in the screen, in words” value is reported as “inactive”.

Same assay, conditions: screen, single dose 100 µM, single replicate; residual AlphaLISA signal normalized to DMSO control
With `COC(=O)NC1C(C)OC(OC2C/C=C(/C)C3C=CC4C(OC5CC(OC6CCC(OC7CC(O)C(OC8CCC(O)C(C)O8)C(C)O7)C(C)O6)C(OC(C)=O)C(C)O5)C(C)CC(C)C4C3(C)/C(O)=C3/C(=O)OC4(CC(C=O)=CC(O)C4/C=C\2C)C3=O)CC1(C)[N+](=O)[O-]` (stereo not shown) [NSC333856] the “IN-GCN2 interaction (%)” value was 110.41%. `COc1cc2c(c(OC)c1O)-c1ccc(OC)c(=O)cc1[C@@H](NC(=O)C(F)(F)F)CC2` [NSC335989] was tested, and the “IN-GCN2 interaction (%)” value was 89.57%. With `COC(=O)[C@]1(C)CCC[C@]2(C)C3=CC(=O)[C@@]4(C(C)C)O[C@H]4[C@]3(O)CC[C@@H]12` [NSC337783] the “IN-GCN2 interaction (%)” value was 100.26%. In the case of `CN(C)c1ccc2c(SCC(=O)OCC(=O)[C@@]3(O)CC[C@H]4[C@@H]5CCC6=CC(=O)C=C[C@]6(C)[C@H]5C(=O)C[C@@]43C)c3ccc(N(C)C)cc3nc2c1` [NSC337851], the “IN-GCN2 interaction (%)” value is reported as 15.16%. For `CCC/C=C/C=C/C(=O)O[C@H]1/C(=C/C(=O)OC)C[C@H]2C[C@H]([C@@H](C)O)OC(=O)C[C@H](O)C[C@@H]3C[C@H](OC(C)=O)C(C)(C)[C@](O)(C[C@@H]4C/C(=C/C(=O)OC)C[C@H](/C=C/C(C)(C)[C@]1(O)O2)O4)O3` [NSC339555], the “IN-GCN2 interaction (%)” value was 32.23%. For `CO[C@H]1C[C@@H]2\C=C(C)/C=C/C=C\C(=O)N[C@H](c3ccccc3)C/C=C/CC[C@H](O)CC(=O)C2=C1O` [NSC343256], the “IN-GCN2 interaction (%)” value was 61.66%. With `O=C1N[C@@H]2C(=C[C@H](O)[C@@H](O)[C@H]2O)c2cc3c(cc21)OCO3` [NSC349155] the “IN-GCN2 interaction (%)” value was 100.93%. With `CC(O)CCC(=O)c1ccoc1` (stereo not shown) [NSC349438] the “IN-GCN2 interaction (%)” value was 84.65%. With `COc1ccc2c(c1)O[C@H]1c3ccc(O)cc3OC[C@@H]21` [NSC350085] the “IN-GCN2 interaction (%)” value was 73.66%. `C=Cc1cc(OC)c2c(c1)c(=O)oc1c2cc(OC)c2c(O)ccc(C3OC(C)C(O)C(C)(O)C3O)c21` (stereo not shown) [NSC354844] was tested, and the “IN-GCN2 interaction (%)” value was 85.63%. For `CO[C@H]1[C@H](O)[C@@H](O)[C@H](n2c3c(Cl)cccc3c3c4c(c5c6cccc(Cl)c6[nH]c5c32)C(=O)NC4=O)O[C@@H]1CO` [NSC359079], the “IN-GCN2 interaction (%)” value was 55.24%. `C=C1C(=O)OC2CC(C)C3(O)CCC(=O)C3(C)CC12` (stereo not shown) [NSC361902] was tested, and the “IN-GCN2 interaction (%)” value was 90.19%. In the case of `CC(C)=CCCC(C)C1=C(O)C(=O)C(C)=CC1=O` (stereo not shown) [NSC365793], the “IN-GCN2 interaction (%)” value is reported as 50.48%. In the case of `C[C@@H]1CC[C@H]2[C@@H](C)C(=O)O[C@@H]3O[C@@]4(C)CC[C@@H]1[C@]32OO4` [NSC369397], the “IN-GCN2 interaction (%)” value is reported as 101.56%. In the case of `CC1(C)CCC[C@]2(C)C3=C(CC[C@@H]12)C(=O)OC3` [NSC375294], the “IN-GCN2 interaction (%)” value is reported as 100.67%. In the case of `CC[C@H](C)[C@@H]([C@@H](CC(=O)N1CCC[C@H]1[C@H](OC)[C@@H](C)C(=O)N[C@@H](Cc1ccccc1)c1nccs1)OC)N(C)C(=O)[C@@H](NC(=O)[C@H](C(C)C)N(C)C)C(C)C` [NSC376128], the “IN-GCN2 interaction (%)” value is reported as 96.15%. `COc1cc2oc3cc(=O)cc4oc(-c5ccccc5)cc(c2c2c1CCC(c1ccccc1)O2)c43` (stereo not shown) [NSC376248] was tested, and the “IN-GCN2 interaction (%)” value was 71.04%. For `CC1(C)C(=O)N2c3ccccc3C3(CC(N4C(=O)c5ccccc5C4=O)C(=O)O3)C2N1C(=O)OCc1ccccc1` (stereo not shown) [NSC382796], the “IN-GCN2 interaction (%)” value was 53.34%. With `CC1=C2C(=CC(C)(C)[C@@H]2O)C(=O)[C@](C)(O)C12CC2` [NSC400978] the “IN-GCN2 interaction (%)” value was 28.97%. `C[C@H]1CO[C@H]2C3=C(C(=O)C=CC3=O)[C@@H]3OC(=O)[C@H]4CC[C@@H]5[C@H]1CC[C@@]52[C@@H]43` [NSC401005] was tested, and the “IN-GCN2 interaction (%)” value was 52.24%. In the case of `COc1cc([C@@H]2c3cc4c(cc3C[C@H]3COC(=O)[C@@H]32)OCO4)cc(OC)c1OC` [NSC403148], the “IN-GCN2 interaction (%)” value is reported as 91.16%. With `COc1cc2c(c3c1c(=O)c1ccccc1n3C)C=CC(C)(C)O2` [NSC403169] the “IN-GCN2 interaction (%)” value was 89.07%. In the case of `O=c1oc2c(O)c(O)cc3c(=O)oc4c(O)c(O)cc1c4c23` [NSC407286], the “IN-GCN2 interaction (%)” value is reported as 49.11%. `COC(=O)[C@H]1[C@H]2C[C@H]3c4[nH]c5ccccc5c4CCN3C[C@@H]2CC[C@@H]1O` [NSC407306] was tested, and the “IN-GCN2 interaction (%)” value was 114.25%. `COc1cc(O[C@@H]2O[C@H](CO)[C@@H](O)[C@H](O)[C@H]2O)c2c(c1)O[C@H](c1ccc(O)cc1)CC2=O` [NSC407308] was tested, and the “IN-GCN2 interaction (%)” value was 92.73%. `C[C@]12CC[C@H](O)C[C@H]1CC[C@@H]1[C@@H]2CC[C@]2(C)[C@@H](C3=CC(=O)OC3)CC[C@]12O` [NSC407806] was tested, and the “IN-GCN2 interaction (%)” value was 101.32%. With `CSC1SC[C@H]2C(=O)N(C)[C@@H](C(C)C)C(=O)OC[C@@H](NC(=O)c3cnc4ccccc4n3)C(=O)N[C@@H](C)C(=O)N(C)[C@@H]1C(=O)N(C)[C@@H](C(C)C)C(=O)OC[C@@H](NC(=O)c1cnc3ccccc3n1)C(=O)N[C@@H](C)C(=O)N2C` (stereo partly shown) [NSC526417] the “IN-GCN2 interaction (%)” value was 53.14%. For `COc1cccc2c1C1COC3C4CC(C(=O)O)C(C(C2)N13)N4C.O=C(O)CC(O)(CC(=O)O)C(=O)O` (stereo not shown) [NSC601422], the “IN-GCN2 interaction (%)” value was 152.09%. With `COc1cccc2c1[C@H](CO)N1[C@H](C#N)[C@@H]3C[C@H](C(=O)O)[C@@H]([C@@H]1C2)N3C` [NSC607097] the “IN-GCN2 interaction (%)” value was 110.01%. `O[C@@H]1[C@@H](O)[C@@H](O)CN2CC[C@H](O)[C@@H]12` [NSC614552] was tested, and the “IN-GCN2 interaction (%)” value was 134.45%. In the case of `CCc1c2c(nc3ccc(OC(=O)N4CCC(N5CCCCC5)CC4)cc13)-c1cc3c(c(=O)n1C2)COC(=O)[C@]3(O)CC` [NSC616348], the “IN-GCN2 interaction (%)” value is reported as 97.94%. `CC(=O)CCCCn1c(=O)c2c(ncn2C)n(C)c1=O` [NSC637086] was tested, and the “IN-GCN2 interaction (%)” value was 87.24%. `C=C1C(=O)C23C(O)C1CCC2C12CCCC(C)(COC(C)=O)C1C(O)C3(O)OC2` (stereo not shown) [NSC642099] was tested, and the “IN-GCN2 interaction (%)” value was 95.31%. For `COc1ccc2c3c([nH]c2c1)[C@H](C=C(C)C)N1C(=O)[C@@H]2CCCN2C(=O)[C@@H]1C3` [NSC719655], the “IN-GCN2 interaction (%)” value was 66.56%. For `COc1c(OC)c2c3c(nccc3c1OC)C(=O)c1cc(O)ccc1-2` [NSC785143], the “IN-GCN2 interaction (%)” value was 30.28%. In the case of `COc1c(OC)c2c3c(nccc3c1OC)-c1cc(=O)c(OC)ccc1-2` [NSC785144], the “IN-GCN2 interaction (%)” value is reported as 14.73%. In the case of `COc1cc2c3c(c1OC)-c1ccccc1C[C@H]3N(C)CC2` [NSC785145], the “IN-GCN2 interaction (%)” value is reported as 66.76%. For `COc1ccc2c(c1OC)-c1c(OC)c(OC)cc3c1[C@H](C2)N(C)CC3` [NSC785146], the “IN-GCN2 interaction (%)” value was 58.90%. For `COc1c(O)ccc2c1-c1c3c(cc4c1[C@H](C2)NCC4)OCO3` [NSC785148], the “IN-GCN2 interaction (%)” value was 69.85%. For `COc1c(OC)c2c3c(nccc3c1OC)C(=O)c1ccccc1-2` [NSC785149], the “IN-GCN2 interaction (%)” value was 57.46%. With `COc1c(OC)c2c3c(ncc(OC)c3c1OC)C(=O)c1ccccc1-2` [NSC785150] the “IN-GCN2 interaction (%)” value was 58.33%. In the case of `COc1c(OC)c(OC)c2c3c(cc4ccccc42)NC(=O)C(=O)c13` [NSC785151], the “IN-GCN2 interaction (%)” value is reported as 48.18%. For `COc1ccc2c(c1O)-c1cccc3c1[C@@H](C2)N(C)CC3` [NSC785152], the “IN-GCN2 interaction (%)” value was 66.28%. With `COc1ccc2c(c1OC)-c1cccc3c1[C@@H](C2)N(C)CC3` [NSC785153] the “IN-GCN2 interaction (%)” value was 61.13%. With `c1ccc2c(c1)cc1c3c(cc4c(c32)OCO4)CCN1` [NSC785156] the “IN-GCN2 interaction (%)” value was 39.07%. In the case of `c1cc2c(c3c1C[C@@H]1NCCc4cc5c(c-3c41)OCO5)OCO2` [NSC785157], the “IN-GCN2 interaction (%)” value is reported as 72.19%. `COc1cc2c3c(c1OC)-c1cc4c(cc1C[C@@H]3N(C)CC2)OCO4` [NSC785161] was tested, and the “IN-GCN2 interaction (%)” value was 55.76%. For `COc1ccc2c(c1OC)-c1c3c(cc4c1[C@H](C2)N(C)CC4)OCO3` [NSC785162], the “IN-GCN2 interaction (%)” value was 46.45%. For `COc1cc2c(c(O)c1OC)C[C@H]1c3c(c(OC)c4c(c3-2)OCO4)CCN1C` [NSC785163], the “IN-GCN2 interaction (%)” value was 34.56%. In the case of `CN1CCc2cc3c(c4c2[C@H]1Cc1ccccc1-4)OCO3` [NSC785164], the “IN-GCN2 interaction (%)” value is reported as 64.36%. `COc1cc2c3c(c1O)C1(C=CC(=O)C=C1)C[C@@H]3N(C)CC2` [NSC785166] was tested, and the “IN-GCN2 interaction (%)” value was 94.62%. With `COc1cc2c3c(c1O)-c1cc(O)ccc1C[C@H]3N(C)CC2` [NSC785167] the “IN-GCN2 interaction (%)” value was 75.29%. For `CCOc1ccc2c(c1)-c1c(O)c(OC)cc3c1[C@H](C2)N(C)CC3` [NSC785169], the “IN-GCN2 interaction (%)” value was 40.02%. With `COc1cc2c(cc1OC)[C@@H](Cc1ccc(O)cc1)N(C)CC2` [NSC785172] the “IN-GCN2 interaction (%)” value was 91.61%. In the case of `COc1cc2c3c(c1O)Oc1ccc(cc1)C[C@@H]1c4c(cc(OC)c(OC)c4Oc4ccc(cc4)C[C@@H]3N(C)CC2)CCN1C` [NSC785173], the “IN-GCN2 interaction (%)” value is reported as 45.72%. `COc1cc2c3c(c1OC)Oc1ccc(cc1)C[C@H]1c4c(cc(OC)c(OC)c4Oc4ccc(cc4)C[C@H]3N(C)CC2)CCN1C` [NSC785174] was tested, and the “IN-GCN2 interaction (%)” value was 57.96%. `COC1=C[C@@H]2[C@@H]3Cc4ccc(OC)c(O)c4[C@]2(CCN3C)CC1=O` [NSC785175] was tested, and the “IN-GCN2 interaction (%)” value was 87.66%.

Same assay, conditions: screen, single dose 100 µM, single replicate; residual AlphaLISA signal normalized to DMSO control; listed as 785147
In the case of `COc1c(O)ccc2c1-c1c3c(cc4c1[C@H](C2)N(C)CC4)OCO3` [NSC785147], the “IN-GCN2 interaction (%)” value is reported as 67.05%.

Same assay, conditions: screen, single dose 100 µM, single replicate; residual AlphaLISA signal normalized to DMSO control; listed as 785159
`COc1cc2c3c(c1O)-c1ccccc1C[C@@H]3N(C)CC2` [NSC785159] was tested, and the “IN-GCN2 interaction (%)” value was 94.21%.

Same assay, conditions: screen, single dose 100 µM, single replicate; residual AlphaLISA signal normalized to DMSO control; listed as 785170
With `COc1cc2c3c(c1O)-c1ccccc1C[C@@H]3N(C)CC2` [NSC785170] the “IN-GCN2 interaction (%)” value was 99.49%.

Source: PMC12390684 (Viruses, 2025)
